Assay results reported in US8716231B2, “Use of benzo-fused heterocycle sulfamide derivatives for the treatment of pain” (Janssen Pharmaceutica NV, priority 2005, dated 2014).

Tested on: Taxol®-induced mechanical allodynia
Assay: Taxol Induced Peripheral Neuropathy Model (pilot), Von Frey testing
Format: in vivo, Sprague-Dawley rats
Settings: Taxol 2 mg/kg i.p. days 1, 3, 5, 7 + HPMC vehicle; day 12 (baseline 16.42±2.14 g)
Protocol: In addition, the compound's effects on spontaneous locomotor activity was measured.
The animals were housed in polycarbonate plastic cages, 2 animals per cage, at a temperature of 18-26° C., 30-70% humidity, 12-hour light/dark cycle, with food and water available ad libityum.
On days 1, 3, 5, and 7, the rats received an ip (intraperitoneal) injection of Taxol® (2 mg/kg).
Two behavioral tests were performed: measurement of tactile sensitivity and spontaneous locomotor activity. At baseline and on Days 5 and 12 post-Taxol® injection, the animals underwent Von Frey testing for mechanical allodynia (according to the procedure as described in Chaplan, S R, Bach, F W, Pogrel, J W, Chung, J M, Yaksh, T L. Quantitative assessment of tactile allodynia in the rat paw. J Neurosci Meth, 53:55-63, 1994). Tactile sensitivity (i.e. mechanical allodynia) was measured using calibrated filaments touched to the plantar surface of the affected limb to determine paw withdrawal threshold. Briefly, the rats were placed in a Plexiglas cage with a wire mesh bottom and allowed to acclimate for 10 minutes. Once the animals settled, the plantar surface of the right hind paw was touched with a 2.0 g von Frey filament. […] Data were analyzed using two-way ANOVA, one-way ANOVA and Dunnett's test, with statistical significance at p<0.05.

| paw withdrawal threshold (mechanical allodynia) [g] | Structure (SMILES) |
| --- | --- |
| 12.11 ± 4.92 | CC(=O)O[C@H]1C(=O)[C@@]2(C)[C@H]([C@H](OC(=O)c3ccccc3)[C@]3(O)C[C@H](OC(=O)[C@H](O)[C@@H](NC(=O)c4ccccc4)c4ccccc4)C(C)=C1C3(C)C)[C@]1(OC(C)=O)CO[C@@H]1C[C@@H]2O [Taxol®, paclitaxel, reference compound] |

Tested on: not given
Assay: not given
Settings: not given

| Structure (SMILES) | melting point [°C] |
| --- | --- |
| NS(=O)(=O)NCC1CCc2ccccc2O1 (stereo not drawn) | 100 to 101 |
| NS(=O)(=O)NC[C@H]1COc2cc(Cl)c(Cl)cc2O1 | 119 to 121 |
| CN(CC1COc2ccccc2O1)S(N)(=O)=O (stereo not drawn) | 97 to 98 |

Next, values leading:

| melting point [°C] | Structure (SMILES) |
| --- | --- |
| 101 to 103 | NS(=O)(=O)NCCC1COc2ccccc2O1 (stereo not drawn) |
| 76 to 78 | CN(C)S(=O)(=O)NCC1COc2ccccc2O1 (stereo not drawn) |
